Test results reported in PMC3397457, “Preclinical Evaluation of Anticancer Efficacy and Pharmacological Properties of FBA-TPQ, a Novel Synthetic Makaluvamine Analog” (Marine Drugs, 2012).

Key:
Mia PaCa-2 cells [1] = assay: Cell cycle distribution by flow cytometry, Mia PaCa-2; format: cell-based, human; settings: Mia PaCa-2, 1 µM
Description: (§1) The effects of FBA-TPQ on cell cycle distribution were analyzed using the previously reported methods; its effects appeared to be cell-line-dependent (Figure 2c). […] The differences in the responses of the different cell lines may be related to their expression of p53.
(§2) To determine the effect of FBA-TPQ on the cell cycle, cells (2–3 × 10^5) were exposed to the test compounds (0, 0.1, 0.5 or 1 µM) and incubated for 24 h prior to analysis. Cells were trypsinized, washed with PBS, and fixed in 1.5 mL of 95% ethanol and 0.5 mL of 0.9% saline solution at 4 °C overnight, followed by incubation with RNAse and staining with propidium iodide (Sigma). The DNA content was determined by flow cytometry. The cell cycle distribution was evaluated by comparing with that of the control cells.

[2] = system: murine hepatic S9 fractions containing Phase I and II metabolic enzymes; assay: S9 metabolism; format: in vitro ADME; settings: mouse hepatic S9, 10 μM, 60 min incubation
Description: As a preliminary study of the metabolism of FBA-TPQ, the compound was incubated with S9 fractions containing Phase I and Phase II metabolic enzymes and their co-factors for 15, 30, 45, or 60 min. […] No specific peaks that seemed to correspond to unique metabolites were identified using the current RRLC method.
A preliminary study of the metabolism of FBA-TPQ was done using murine hepatic S9 fractions containing Phase I and II metabolic enzymes. […] Duplicate aliquots of the mixtures were taken at 0, 15, 30, 45, and 60 min, and the samples were processed and analyzed. The percent of FBA-TPQ that was metabolized by Phase I and Phase II enzymes was calculated by comparing the initial concentration of the iminoquinone to the measured concentration following incubation.

Panc-1 cells [3] = assay: Cell cycle distribution by flow cytometry, Panc-1; format: cell-based, human; settings: Panc-1, 1 µM
Description: as §1, §2

Mia PaCa-2 cells [4] = assay: Annexin V apoptosis assay/flow cytometry, Mia PaCa-2; format: cell-based, human; settings: Mia PaCa-2, 1 µM, 48 h
Description: The apoptotic cells were detected using a method reported previously. […] In HPAC cells, a 1 µM concentration of FBA-TPQ increased the apoptotic index two-fold higher than that seen in control cells (P < 0.01). […] In the Mia PaCa-2 cells, FBA-TPQ at 1 µM led to a three-fold increase in apoptosis (P < 0.01).
Following a similar protocol as above, cells in early and late stages of apoptosis were detected using an Annexin V-FITC apoptosis detection kit from BioVision (Mountain View, CA, USA), according to the manufacturer’s protocol. For apoptosis experiments, 2–3 × 10^5 cells were exposed to the test compound (0, 0.1, 0.5 and 1.0 µM) and incubated for 48 h prior to analysis. Cells were collected and washed with serum-free media. Cells were then re-suspended in 500 µL of Annexin V binding buffer followed by addition of 5 µL of Annexin V-FITC and 5 µL of propidium iodide (PI). The samples were incubated in the dark for 5 min at room temperature and analyzed with a Becton Dickinson FACSCalibur instrument (Ex = 488 nm; Em = 530 nm). Cells that were positive for Annexin V-FITC alone (early apoptosis) and Annexin V-FITC and PI (late apoptosis) were counted. The apoptotic index was calculated against the untreated control cells.

Mia PaCa-2 cells [5] = assay: MTT cell survival assay, Mia PaCa-2; format: cell-based; settings: Homo sapiens, Mia PaCa-2, 72 h, read-out: Cytotoxicity IC50
Description: (§3) We evaluated the effects of FBA-TPQ on the survival of several human pancreatic cancer cell lines, including HPAC (p53^+/+), Panc-1(p53^+/−), and Mia PaCa-2(p53^+/−), as well as normal IRM90 fetal fibroblast cells (Figure 2a). Cells were exposed to various concentrations of the test compound (0–10 µM) for 72 h, and cell survival rates were determined by the MTT assay, using a procedure reported previously. FBA-TPQ exerted potent effects against the test cancer cell lines, leading to significant decreases in cell viability.
(§4) Human pancreatic cancer cells were obtained from the American Type Culture Collection (Rockville, MD). All cell culture media contained 10% FBS and 1% penicillin/streptomycin. […]
(§5) The effect of the test compound on human pancreatic cancer cell viability, expressed as the percentage of cell survival, was determined using the MTT (3-(4,5-dimethylthiazol-2-yl)-2,5-diphenyl tetrazolium bromide) assay. […] The absorbance at 570 nm was recorded using an OPTImax microplate reader (Molecular Devices; Sunnyvale, CA, USA). The cell survival percentages were calculated by dividing the mean OD of compound-containing wells by that of DMSO-containing control wells. […]

Panc-1 cells [6] = assay: MTT cell survival assay, Panc-1; format: cell-based; settings: Homo sapiens, Panc-1, 72 h, read-out: Cytotoxicity IC50
Description: as §3, §4, §5

[7] = MTT cell survival assay, IMR-90 normal fibroblasts; format: cell-based; settings: human, IMR-90 normal fetal fibroblast cells, read-out: Cytotoxicity IC50
Description: as §3, §4, §5

## O=C1C(NCc2ccc(F)cc2)=CC2=NCCc3c[nH]c1c32 [FBA-TPQ, 7-(4-fluorobenzylamino)-1,3,4,8-tetrahydropyrrolo[4,3,2-de]quinolin-8(1H)-one]
Mia PaCa-2 cells [1]
  cell cycle arrest: arrest in the S phase
[2]
  compound metabolized by Phase I components: approximately 14.3%
  compound metabolized by Phase II components: ~1.8%
Panc-1 cells [3]
  cell cycle arrest: arrest in the S phase
Mia PaCa-2 cells [4]
  increase in apoptosis vs control cells: three-fold
Mia PaCa-2 cells [5]
  IC50: 320 ± 10 nM
Panc-1 cells [6]
  IC50: 110 ± 10 nM
[7]
  IC50 at 72 h: 5820 ± 460 nM
